This note sets out measurements from patent US11021481B2, “Substituted isoindolin-1-ones and 2,3-dihydro-1h-pyrrolo[3,4-c]pyridin-1-ones as HPK1 antagonists” (Nimbus Saturn, Inc., priority 2019, dated 2021).

Where a name gives a salt, the structure may show the parent alone. Some results are limits rather than exact numbers.

HPK1, sequence (Q92918 whole entry): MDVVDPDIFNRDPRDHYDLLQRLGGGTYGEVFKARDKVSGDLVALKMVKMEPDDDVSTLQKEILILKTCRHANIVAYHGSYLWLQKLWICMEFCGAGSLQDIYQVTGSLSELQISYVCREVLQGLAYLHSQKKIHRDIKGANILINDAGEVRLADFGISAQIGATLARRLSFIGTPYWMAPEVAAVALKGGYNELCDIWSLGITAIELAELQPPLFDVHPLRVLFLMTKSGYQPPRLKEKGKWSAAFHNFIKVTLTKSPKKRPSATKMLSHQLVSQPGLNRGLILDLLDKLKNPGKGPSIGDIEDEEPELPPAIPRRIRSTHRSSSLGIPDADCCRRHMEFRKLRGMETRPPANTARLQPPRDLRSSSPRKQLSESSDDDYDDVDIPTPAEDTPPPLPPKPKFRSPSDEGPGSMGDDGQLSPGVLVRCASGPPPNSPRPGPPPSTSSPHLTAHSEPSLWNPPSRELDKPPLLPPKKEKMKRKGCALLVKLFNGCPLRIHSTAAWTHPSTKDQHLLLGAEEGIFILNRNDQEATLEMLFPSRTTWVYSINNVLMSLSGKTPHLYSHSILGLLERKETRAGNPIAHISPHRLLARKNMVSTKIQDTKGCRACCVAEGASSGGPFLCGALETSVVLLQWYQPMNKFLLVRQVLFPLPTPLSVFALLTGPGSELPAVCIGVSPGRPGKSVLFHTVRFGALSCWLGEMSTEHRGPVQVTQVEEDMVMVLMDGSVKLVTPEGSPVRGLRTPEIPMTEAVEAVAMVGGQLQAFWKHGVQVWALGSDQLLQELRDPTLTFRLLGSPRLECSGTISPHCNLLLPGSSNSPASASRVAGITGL

This assay addresses HPK1 (Homo sapiens (Human), UniProt Q92918). In words: HPK1 biochemical enzyme assay (microfluidic mobility shift assay). As to conditions: 1.5 nM HPK1, ATP 1 mM final, 30 min preincubation, 60 min at RT, Caliper EZ Reader; read-out: HPK1 1000UMATP caliper IC50. The method in brief: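 Mobility shift readout of HPK1 activity after a 60 min RT reaction with 1 mM ATP, 1 μM substrate and 5 mM MgCl2. Enzyme/substrate mix was first exposed to compounds for 30 min, using ten-point curves topping at 3 μM final.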
With `Cc1ccn2c(-c3ncc(Nc4ccc(N5CCO[C@@H](C(C)(C)O)C5)cn4)c4c3CNC4=O)cnc2c1F` [I-467, 4-(8-fluoro-7-methyl-imidazo[1,2-a]pyridin-3-yl)-7-[[5-[(2R)-2-(1-hydroxy-1-methyl-ethyl)morpholin-4-yl]-2-pyridyl]amino]-2,3-dihydropyrrolo [3,4-c]pyridin-l-one], the IC50 was less than 100 nM. The figure for `Cc1ccn2c(-c3ccc(Nc4ccc(CN5CCOCC5)cn4)c4c3CNC4=O)cnc2c1F` [I-468, 4-(8-fluoro-7-methyl-imidazo[1,2-a]pyridin-3-yl)-7-[[5-(morpholino-methyl)-2-pyridyl]amino] isoindolin-1-one] is less than 100 nM; for `CC(C)(O)[C@H]1CN(c2ccc(Nc3cnc(-c4cnc5ccccn45)c4c3C(=O)NC4)nc2)CCO1` [I-470, 7-[[5-[(2R)-2-(1-hydroxy-1-methyl-ethyl)morpholin-4-yl]-2-pyridyl]amino]-4-imidazo[1,2-a]pyridin-3-yl-2,3-dihydropyrrolo [3,4-c]pyridin-1-one] it is more than 1000 nM; for `Cn1ccc2c(-c3ncc(Nc4ccc(N5CCO[C@H](C(C)(C)O)C5)cn4)c4c3CNC4=O)ccnc21` [I-471, 7-[[5-[(2S)-2-(1-hydroxy-1-methyl-ethyl)morpholin-4-yl]-2-pyridyl]amino]-4-(1-methylpyrrolo [2,3-b]pyridin-4-yl)-2,3-dihydropyrrolo [3,4-c]pyridin-1-one] it is less than 100 nM.

On to `Cn1ccc2c(-c3ncc(Nc4cccc(N5CCC6CNCC65)n4)c4c3CNC4=O)ccnc21` (stereo not drawn) [I-472, 7-[[6-(3,3a,4,5,6,6a-hexahydro-2H-pyrrolo[2,3-c]pyrrol-1-yl)-2-pyridyl]amino]-4-(1-methylpyrrolo [2,3-b]pyridin-4-yl)-2,3-dihydropyrrolo [3,4-c]pyridin-l-one], for which the IC50 is less than 100 nM. The figure for `Cc1ccn2c(-c3ncc(Nc4ccc(N5CCO[C@H](C(C)(C)O)C5)cn4)c4c3CNC4=O)cnc2c1F` [I-473, 4-(8-fluoro-7-methyl-imidazo[1,2-a]pyridin-3-yl)-7-[[5-[(2S)-2-(1-hydroxy-1-methyl-ethyl)morpholin-4-yl]-2-pyridyl]amino]-2,3-dihydropyrrolo [3,4-c]pyridin-1-one] is less than 100 nM. The figure for `CC(C)(O)[C@@H]1CN(c2ccc(Nc3ccc(-c4cnc5cccnn45)c4c3C(=O)NC4)nc2)CCO1` [I-474, 7-[[5-[(2S)-2-(1-hydroxy-1-methyl-ethyl)morpholin-4-yl]-2-pyridyl]amino]4-imidazo[1,2-b]pyridazin-3-yl-isoindolin-1-one] is less than 100 nM.

On to `CC(C)(O)[C@@H]1CN(c2ccc(Nc3cnc(-c4cnc5c(C(F)F)cccn45)c4c3C(=O)NC4)nc2)CCO1` [I-475, 4-[8-(difluoromethyl)-imidazo[1,2-a]pyridin-3-yl]-7-[[5-[(2S)-2-(1-hydroxy-1-methyl-ethyl)morpholin-4-yl]-2-pyridyl]amino]-2,3-dihydropyrrolo [3,4-c]pyridin-1-one], for which the IC50 is less than 100 nM.

Consider `O=C1NCc2c(-c3cnc4cc(F)ccn34)ccc(Nc3ccc(N4CCCC(N5CCOCC5)C4)cn3)c21` (centres unmarked) [I-476, Formic acid salt 4-(7-fluoroimidazo [1,2-a]pyridin-3-yl)-7-[[5-(3-morpholino-1-piperidyl)-2-pyridyl]amino] isoindolin-1-one], for which the IC50 was less than 100 nM. The figure for `O=C1NCc2c(-c3cnc4cc(F)ccn34)ccc(Nc3ccc(N4CCO[C@H](CNC5CC5)C4)cn3)c21` [I-477, 7-[[5-[(2R)-2-[(cyclopropylamino)methyl]morpholin-4-yl]-2-pyridyl]amino]-4-(7-fluoroimidazo [1,2-a]pyridin-3-yl)isoindolin-1-one] is less than 100 nM; for `O=C1NCc2c(-c3cnc4cc(F)ccn34)ccc(Nc3ccc(N4CCO[C@H](CN5CC(F)C5)C4)cn3)c21` [I-482, 7-[[5-[(2R)-2-[(3-fluoroazetidin-1-yl)methyl]mor pholin-4-yl]-2-pyridyl]amino] 4-(7-fluoroimidazo [1,2-a]pyridin-3-yl)isoindolin-1-one] it is less than 100 nM. The figure for `CC(C)(O)[C@@H]1CN(c2ccc(Nc3cnc(-c4cnc5c(F)cccn45)c4c3C(=O)NC4)nc2)CCO1` [I-483, 4-(8-fluoroimidazo [1,2-a]pyridin-3-yl)-7-[[5-[(2S)-2-(1-hydroxy-1-methyl-ethyl)morpholin-4-yl]-2-pyridyl]amino]-2,3-dihydropyrrolo [3,4-c]pyridin-1-one] is less than 100 nM; for `Cn1ccc2c(-c3ncc(Nc4ccc(N5CCO[C@H](C(C)(C)O)C5)cn4)c4c3CNC4=O)cccc21` [I-484, 7-[[5-[(2S)-2-(1-hydroxy-1-methyl-ethyl)morpholin-4-yl]-2-pyridyl]amino]-4-(1-methylindol-4-yl)-2,3-dihydropyrrolo [3,4-c]pyridin-l-one] it is less than 100 nM; for `CC(C)(O)[C@@H]1CN(c2ccc(Nc3cnc(-c4cnc5ccccn45)c4c3C(=O)NC4)nc2)CCO1` [I-485, 7-[[5-[(2S)-2-(1-hydroxy-1-methyl-ethyl)morpholin-4-yl]-2-pyridyl]amino] 4-imidazo[1,2-a]pyridin-3-yl-2,3-dihydropyrrolo [3,4-c]pyridin-1-one] it is less than 100 nM.

On to `Cc1ccn2c(-c3ccc(Nc4ccc(N5CCO[C@@H](C(C)(C)O)C5)cn4)c4c3CNC4=O)cnc2c1F` [I-487, 4-(8-fluoro-7-methyl-imidazo[1,2-a]pyridin-3-yl)-7-[[5-[(2R)-2-(1-hydroxy-1-methyl-ethyl)morpholin-4-yl]-2-pyridyl]amino]isoindolin-1-one], for which the IC50 was less than 100 nM. The figure for `Cc1ccc2c(-c3ccc(Nc4ccc(N5CCO[C@H](C(C)(C)O)C5)cn4)c4c3CNC4=O)cnn2c1` [I-489, 7-[[5-[(2S)-2-(1-hydroxy-1-methylethyl)morpholin-4-yl]-2-pyripyl]amino]-4-(6-methylpyrazo-lo[1,5-a]pyridin-3-yl)isoindolin-1-one] is less than 100 nM; for `Cc1ccn2c(-c3ccc(Nc4ccc(N5CCO[C@H](C(C)(C)O)C5)cn4)c4c3CNC4=O)cnc2c1` [I-490, 7-[[5-[(2S)-2-(1-hydroxy-1-methylethyl)morpholin-4-yl]-2-pyridyl]amino]-4-(7-methylimidazo [1,2-a]pyridin-3-yl)isoindolin-1-one] it is less than 100 nM. For `CN(CC1(O)CCCN(c2ccc(Nc3ccc(-c4cnc5cc(F)ccn45)c4c3C(=O)NC4)nc2)C1)C1CC1` (centres unmarked) [I-491, 7-[[5-[3-[[cyclopropyl (methyl)amino]methyl]-3-hydroxy-1-piperidyl]-2-pyridyl]amino] 4-(7-fluoroimidazo [1,2-a]pyridin-3-yl)isoindolin-1-one] the value was less than 100 nM; for `CC(C)(O)[C@@H]1CN(c2ccc(Nc3ccc(-c4cnc5cc(C(F)F)ccn45)c4c3C(=O)NC4)nc2)CCO1` [I-492, 4-[7-(difluoromethyl)-imidazo[1,2-a]pyridin-3-yl]-7-[[5-[(2S)-2-(1-hydroxy-1-methyl-ethyl)morpholin-4-yl]-2-pyridyl]amino]isoindolin-1-one], less than 100 nM; for `O=C1NCc2c(-c3cnc4cc(F)ccn34)ccc(Nc3cccc(N4CCC5CNCC54)n3)c21` (centres unmarked) [I-493], less than 100 nM. The figure for `CN(C[C@@H]1CN(c2ccc(Nc3ccc(-c4cnc5cc(F)ccn45)c4c3C(=O)NC4)nc2)CCO1)C1CC1` [I-494, 7-[[5-[(2R)-2-[[cyclopropyl (methyl)amino]methyl]morph-olin-4-yl]-2-pyridyl]amino]-4-(7-fluoroimidazo [1,2-a]pyridin-yl)isoindolin-1-one] is less than 100 nM; for `CN1CCOC2(CCCN(c3ccc(Nc4ccc(-c5cnc6cc(F)ccn56)c5c4C(=O)NC5)nc3)C2)C1` (centres unmarked) [I-496, 4-(7-fluoroimidazo [1,2-a]pyridin-3-yl)-7-[[5-(4-methyl-1-oxa-4,8-diazaspiro[5.5]undecan-8-yl)-2-pyridyl]amino) isoindolin-1-one] it is less than 100 nM; for `O=C1NCc2c(-c3cnc4cc(F)ccn34)ccc(Nc3cccc(N4CC[C@H]5CNC[C@H]54)n3)c21` [I-497, 4-(7-fluoroimidazo [1,2-a]pyridin-3-yl)-7-((6-((3aS,6aS)-hexahydropy-rrolo[3,4-b]pyrrol-1(2H)-yl)pyridin-2-yl)amino)isoin-dolin-1-one] it is less than 100 nM. On to `O=C1NCc2c(-c3cnc4cc(F)ccn34)ccc(Nc3cccc(N4CC[C@@H]5CNC[C@@H]54)n3)c21` [I-498, 4-(7-fluoroimidazo [1,2-a]pyridin-3-yl)-7-((6-((3aR,6aR)-hexahydropy-rrolo[3,4-b]pyrrol-1(2H)-yl)pyridin-2-yl)amino)isoin-dolin-1-one], for which the IC50 is less than 100 nM. Take `CN(C[C@H]1CN(c2ccc(Nc3ccc(-c4cnc5cc(F)ccn45)c4c3C(=O)NC4)nc2)CCO1)C1CC1` [I-499, 7-[[5-[(2S)-2-[[cyclopropyl (methyl)amino]methyl]morpholin-4-yl]-2-pyridyl]amino] 4-(7-fluoroimidazo [1,2-a]pyridin-3-yl)isoindolin-1-one]: the IC50 is less than 100 nM. Consider `O=C1NCc2c(-c3cnc4cc(F)ccn34)ccc(Nc3ccc(N4CCCC5(CNCCO5)C4)cn3)c21` (centres unmarked) [I-500, 4-(7-fluoroimidazo [1,2-a]pyridin-3-yl)-7-[[5-(1-oxa-4,8-diazaspiro[5.5]undecan-8-yl)-2-pyridyl]amino] isoindolin-1-one], for which the IC50 is less than 100 nM. On to `O=C1NCc2c(-c3cnc4cc(F)ccn34)ccc(Nc3ccc(N4CCC[C@H](N5CCOCC5)C4)cn3)c21` [I-501, (S)-4-(7-fluoroimidazo [1,2-a]pyridin-3-yl)-7-((5-(3-morpholinopip-eridin-1-yl)pyridin-2-yl)amino)isoin-dolin-1-one], for which the 50% inhibitory concentration (IC50) is less than 100 nM.

Take `O=C1NCc2c(-c3cnc4cc(F)ccn34)ccc(Nc3ccc(N4CCC[C@@H](N5CCOCC5)C4)cn3)c21` [I-502, (R)-4-(7-fluoroimidazo [1,2-a]pyridin-3-yl)-7-((5-(3-morpholinopip-eridin-1-yl)pyridin-2-yl)amino)isoin-dolin-1-one]: the IC50 is less than 100 nM.

For the compound `CN(C)CC1(F)CCCN(c2ccc(Nc3ccc(-c4cnc5cc(F)ccn45)c4c3C(=O)NC4)nc2)C1` (centres unmarked) [I-503], the IC50 is less than 100 nM.
